Measurements as given in patent US8614324B2, “Filamin A binding anti-inflammatory and analgesic” (priority 2008, dated 2013).

target: T1, mu opiate receptor (MOR) (Rattus norvegicus, UniProt P33535); test: MOR agonist activity, [35S]GTPγS binding assay using striatal membranes; format: biochemical; set-up: MOR agonist activity, [35S]GTPγS binding to Gαo: reference not given here; conditions: 0.1 μM compound, striatal membranes
T1 construct: from tissue; host or cells: striatal membrane preparation (rat striatum)
Procedure: To assess the mu opiate receptor (MOR) agonist activity of positive compounds from the FLNA screening, compounds were tested in a [^35S]GTPγS binding assay using striatal membranes.
Striatal tissue was homogenized in 10 volumes of ice cold 25 mM HEPES buffer, pH 7.4, which contained 1 mM EGTA, 100 mM sucrose, 50 μg/ml leupeptin, 0.04 mM PMSF, 2 μg/ml soybean trypsin inhibitor and 0.2% 2-mercaptoethanol. The homogenates were centrifuged at 800×g for 5 minutes and the supernatants were centrifuged at 49,000×g for 20 minutes. The resulting pellets were suspended in 10 volume of reaction buffer, which contained 25 mM HEPES, pH 7.5, 100 mM NaCl, 50 μg/ml leupeptin, 2 μg/ml soybean trypsin inhibitor, 0.04 mM PMSF and 0.02% […].
The resultant striatal membrane preparation (200 μg) was admixed and maintained (incubated) at 30° C. for 5 minutes in reaction buffer as above that additionally contained 1 mM MgCl2 and 0.5 nM [^35S]GTPγS (0.1 μCi/assay, PerkinElmer Life and Analytical Sciences) in a total volume of 250 μl and continued for 5 minutes in the absence or presence of 0.1-10 μM of an assayed compound of interest. The reaction was terminated by dilution with 750 μl of ice-cold reaction buffer that contained 20 mM MgCl2 and 1 mM EGTA and immediate centrifugation at 16,000×g for 5 minutes.
The resulting pellet was solubilized by sonicating for 10 seconds in 0.5 ml of immunoprecipitation buffer containing 0.5% digitonin, 0.2% sodium cholate and 0.5% NP-40. Normal rabbit serum (1 μl) was added to 1 ml of lysate and incubated at 25° C. for 30 minutes. Nonspecific immune complexes were removed by incubation with 25 μl of protein A/G-conjugated agarose beads at 25° C. for 30 minutes followed by centrifugation at 5,000×g at 4° C. for 5 minutes. The supernatant was divided and separately incubated at 25° C. for 30 minutes with antibodies raised against Gαo proteins (1:1,000 dilutions).
The immunocomplexes so formed were collected by incubation at 25° C. for 30 minutes with 40 μl of agarose-conjugated protein A/G beads and centrifugation at 5,000×g at 4° C. for 5 minutes. The pellet was washed and suspended in buffer containing 50 mM Tris-HCl, pH 8.0, and 1% NP-40. The radioactivity in the suspension was determined by liquid scintillation spectrometry. […] DAMGO (H-Tyr-D-Ala-Gly-N-MePhe-Gly-OH; 1 or 10 μM) was used as a positive control.

T1 sequence (P33535 whole entry): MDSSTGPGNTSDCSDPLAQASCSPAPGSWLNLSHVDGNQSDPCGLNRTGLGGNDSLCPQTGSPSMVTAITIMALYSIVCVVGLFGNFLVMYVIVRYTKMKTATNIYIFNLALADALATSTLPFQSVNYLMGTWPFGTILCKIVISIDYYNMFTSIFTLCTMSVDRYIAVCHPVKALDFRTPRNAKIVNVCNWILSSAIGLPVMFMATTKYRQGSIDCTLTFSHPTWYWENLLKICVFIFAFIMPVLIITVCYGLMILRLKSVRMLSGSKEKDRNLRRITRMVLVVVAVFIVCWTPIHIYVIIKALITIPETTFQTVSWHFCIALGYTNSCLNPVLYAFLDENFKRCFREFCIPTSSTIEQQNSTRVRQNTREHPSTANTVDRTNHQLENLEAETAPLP

Compared with `O=C1CN(Cc2ccccc2)C2(CCNCC2)N1` [Compound C0115M], `O=C1CN(Cc2ccccc2)C2(CCN(CC3CC3)CC2)N1` [Compound C0125M] is lower in “MOR agonist activity, [35S]GTPγS binding to Gαo” value (from here on “MOR agonist activity”): 177.2% for the first, 168.6% for the second.

Going from `CS(=O)(=O)c1ccc(S(=O)(=O)N2CCOC23CCNCC3)cc1` [Compound C0116M] to `CS(=O)(=O)c1ccc(S(=O)(=O)N2CCOC23CCN(CC2CC2)CC3)cc1` [Compound C0126M], the “MOR agonist activity” value falls from 258.4% to 181.8%.

Compared with `CC(=O)c1ccc(S(=O)(=O)N2CC(CN(C)C)OC23CCNCC3)cc1` (stereo not drawn) [Compound C0118M], `CC(=O)c1ccc(S(=O)(=O)N2CC(CN(C)C)OC23CCN(CC2CC2)CC3)cc1` (stereo not drawn) [Compound C0128M] is higher in “MOR agonist activity” value: 166.2% for the first, 197.8% for the second.

First: CC(=O)c1ccc(S(=O)(=O)N2C(Cc3c[nH]cn3)C(=O)NC23CCNCC3)cc1 (stereo not drawn) [Compound C0119M]
Second: COc1ccc(S(=O)(=O)N2CCC3(CC2)NCCC(=O)N3)cc1 [Compound C0142M]
The “MOR agonist activity” value of the first is lower: 105.7% for the first, 143.7% for the second.

Going from `COc1ccc(S(=O)(=O)N2CCOC23CCN(C(C)C)CC3)cc1` [Compound C0133M] to `Cc1ccc(S(=O)(=O)N2CCOC23CCN(CC2CC2)CC3)cc1` [Compound C0134M], the “MOR agonist activity” value rises from 139.4% to 158.5%.

First: CCc1ccc(S(=O)(=O)N2CCOC23CCN(CC2CC2)CC3)cc1 [Compound C0135M]
Second: C[C@@H](NC(=O)[C@@H](N)Cc1ccc(O)cc1)C(=O)NCC(=O)N(C)[C@@H](Cc1ccccc1)C(=O)NCCO [DAMGO, reference compound]
The “MOR agonist activity” value of the first is lower: 161.3% for the first, 168.5% for the second.

same assay, conditions: 1 μM compound + BFNA (1 μM β-funaltrexamine)

Going from `O=C1CN(Cc2ccccc2)C2(CCNCC2)N1` [Compound C0115M] to `O=C1CN(Cc2ccccc2)C2(CCN(CC3CC3)CC2)N1` [Compound C0125M], the “MOR agonist activity” value rises from 118.4% to 159.7%.

Compared with `CS(=O)(=O)c1ccc(S(=O)(=O)N2CCOC23CCNCC3)cc1` [Compound C0116M], `CS(=O)(=O)c1ccc(S(=O)(=O)N2CCOC23CCN(CC2CC2)CC3)cc1` [Compound C0126M] is lower in “MOR agonist activity” value: 152.0% for the first, 108.5% for the second.

First: CC(=O)c1ccc(S(=O)(=O)N2CC(CN(C)C)OC23CCNCC3)cc1 (stereo not drawn) [Compound C0118M]
Second: CC(=O)c1ccc(S(=O)(=O)N2CC(CN(C)C)OC23CCN(CC2CC2)CC3)cc1 (stereo not drawn) [Compound C0128M]
The “MOR agonist activity” value of the first is higher: 79.2% for the first, 63.9% for the second.

Going from `CC(=O)c1ccc(S(=O)(=O)N2C(Cc3c[nH]cn3)C(=O)NC23CCNCC3)cc1` (stereo not drawn) [Compound C0119M] to `COc1ccc(S(=O)(=O)N2CCC3(CC2)NCCC(=O)N3)cc1` [Compound C0142M], the “MOR agonist activity” value rises from 35.1% to 98.7%.

Compared with `COc1ccc(S(=O)(=O)N2CCOC23CCN(C(C)C)CC3)cc1` [Compound C0133M], `Cc1ccc(S(=O)(=O)N2CCOC23CCN(CC2CC2)CC3)cc1` [Compound C0134M] is lower in “MOR agonist activity” value: 72.4% for the first, 46.6% for the second.

Compared with `CCc1ccc(S(=O)(=O)N2CCOC23CCN(CC2CC2)CC3)cc1` [Compound C0135M], `C[C@@H](NC(=O)[C@@H](N)Cc1ccc(O)cc1)C(=O)NCC(=O)N(C)[C@@H](Cc1ccccc1)C(=O)NCCO` [DAMGO, reference compound] is lower in “MOR agonist activity” value: 113.3% for the first, 53.2% for the second.

same assay, conditions: 1 μM compound, striatal membranes

Compared with `O=C1CN(Cc2ccccc2)C2(CCNCC2)N1` [Compound C0115M], `O=C1CN(Cc2ccccc2)C2(CCN(CC3CC3)CC2)N1` [Compound C0125M] is lower in “MOR agonist activity” value: 226.8% for the first, 195.2% for the second.

First: CS(=O)(=O)c1ccc(S(=O)(=O)N2CCOC23CCNCC3)cc1 [Compound C0116M]
Second: CS(=O)(=O)c1ccc(S(=O)(=O)N2CCOC23CCN(CC2CC2)CC3)cc1 [Compound C0126M]
The “MOR agonist activity” value of the first is higher: 302.8% for the first, 265.3% for the second.

Compared with `CC(=O)c1ccc(S(=O)(=O)N2CC(CN(C)C)OC23CCNCC3)cc1` (stereo not drawn) [Compound C0118M], `CC(=O)c1ccc(S(=O)(=O)N2CC(CN(C)C)OC23CCN(CC2CC2)CC3)cc1` (stereo not drawn) [Compound C0128M] is higher in “MOR agonist activity” value: 261.5% for the first, 286.0% for the second.

First: CC(=O)c1ccc(S(=O)(=O)N2C(Cc3c[nH]cn3)C(=O)NC23CCNCC3)cc1 (stereo not drawn) [Compound C0119M]
Second: COc1ccc(S(=O)(=O)N2CCC3(CC2)NCCC(=O)N3)cc1 [Compound C0142M]
The “MOR agonist activity” value of the first is lower: 167.8% for the first, 192.5% for the second.

Going from `COc1ccc(S(=O)(=O)N2CCOC23CCN(C(C)C)CC3)cc1` [Compound C0133M] to `Cc1ccc(S(=O)(=O)N2CCOC23CCN(CC2CC2)CC3)cc1` [Compound C0134M], the “MOR agonist activity” value falls from 214.8% to 207.3%.

Compared with `CCc1ccc(S(=O)(=O)N2CCOC23CCN(CC2CC2)CC3)cc1` [Compound C0135M], `C[C@@H](NC(=O)[C@@H](N)Cc1ccc(O)cc1)C(=O)NCC(=O)N(C)[C@@H](Cc1ccccc1)C(=O)NCCO` [DAMGO, reference compound] is lower in “MOR agonist activity” value: 310.1% for the first, 266.1% for the second.

tested on: IL-6 release from primary human astrocytes; test: LPS-induced cytokine release from primary human astrocytes, IL-6; format: cell-based; conditions: 10 pM compound 2 hours prior to LPS (1 μg/ml) and continued 24 hours
Procedure: (§1) The following study was undertaken to investigate whether contemplated compounds and (+)NLX affect LPS-induced release of the pro-inflammatory cytokine (IL-1β, IL-6 and TNF-α) release from primary human astrocytes. […]
(§2) Primary astrocytes culture was prepared according to the provider's instructions (Lonza). The adherent astrocytes were trypsinized by 0.25% trypsin-EDTA, then collected and sub-cultured in 12-well plate (1.2 ml/well). […] Vehicle groups were pretreated with 0.1% DMSO only. Following addition of LPS, incubation continued for 24 hours. Culture medium was used as the blank and the levels of cytokines, TNF-α, IL-6 and IL-1β in 200 μl of culture medium were determined. Each well was sampled twice.
(§3) Plates were washed 3 times with ice-cold 50 mM Tris HCl (pH 7.4) and incubated at 30° C. with 200 μl medium derived from the above mentioned conditions. Plates were washed 3 times with ice-cold 50 mM Tris HCl (pH 7.4) and incubated at 30° C. with 0.5 μg/well un-conjugated rabbit anti-anti-INF-α, -IL-6 and -IL-1β for 1 hour. After two 1 minute washes with 50 mM Tris HCl (pH 7.4), each well was incubated in 0.5 μg/well FITC-conjugated anti-rabbit IgG (human and mouse absorbed) for 1 hour at 30° C. Plates were washed twice with 200 μl ice-cold Tris HCl, pH 7.4 and the residual […] signals were determined by multimode plate reader, DTX880 (Beckman).

`C=CCN1CC[C@]23c4c5ccc(O)c4O[C@H]2C(=O)CC[C@]3(O)[C@H]1C5` [(+)Naloxone, (+)naloxone, reference compound] was tested, and the “IL-6 Average % (±SEM)” value was 56.9 (4.4) %.

same assay, conditions: 1 nM compound 2 hours prior to LPS (1 μg/ml) and continued 24 hours

In the case of `C=CCN1CC[C@]23c4c5ccc(O)c4O[C@H]2C(=O)CC[C@]3(O)[C@H]1C5` [(+)Naloxone, (+)naloxone, reference compound], the “IL-6 Average % (±SEM)” value is reported as 6.8 (4.3) %.

tested on: TNF-α release from primary human astrocytes; test: LPS-induced cytokine release from primary human astrocytes, TNF-α; format: cell-based; conditions: 10 pM compound 2 hours prior to LPS (1 μg/ml) and continued 24 hours
Procedure: as §1, §2, §3

`C=CCN1CC[C@]23c4c5ccc(O)c4O[C@H]2C(=O)CC[C@]3(O)[C@H]1C5` [(+)Naloxone, (+)naloxone, reference compound] was tested, and the “TNF-α Average % (±SEM)” value was 58.6 (2.0) %.

same assay, conditions: 1 nM compound 2 hours prior to LPS (1 μg/ml) and continued 24 hours

With `C=CCN1CC[C@]23c4c5ccc(O)c4O[C@H]2C(=O)CC[C@]3(O)[C@H]1C5` [(+)Naloxone, (+)naloxone, reference compound] the “TNF-α Average % (±SEM)” value was 9.2 (6.0) %.

tested on: IL-1β release from primary human astrocytes; test: LPS-induced cytokine release from primary human astrocytes, IL-1β; format: cell-based; conditions: 10 pM compound 2 hours prior to LPS (1 μg/ml) and continued 24 hours
Procedure: as §1, §2, §3

In the case of `C=CCN1CC[C@]23c4c5ccc(O)c4O[C@H]2C(=O)CC[C@]3(O)[C@H]1C5` [(+)Naloxone, (+)naloxone, reference compound], the “IL-1β Average % (±SEM)” value is reported as 75.9 (4.5) %.

same assay, conditions: 1 nM compound 2 hours prior to LPS (1 μg/ml) and continued 24 hours

With `C=CCN1CC[C@]23c4c5ccc(O)c4O[C@H]2C(=O)CC[C@]3(O)[C@H]1C5` [(+)Naloxone, (+)naloxone, reference compound] the “IL-1β Average % (±SEM)” value was 10.5 (4.8) %.
